Experiments:
Experiment in all cases: viability relative to DMSO control (fraction); higher = less drug effect (more viable cells)
Conditions in all cases: 48 h
[1] = test system: primary ALL patient cells (S048)
Outline: (§1)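 Viability was quantified by CellTiter-Glo luminescence and related to the median of 16 inner DMSO wells. Before that, primary mononuclear tumour cells, fresh or cryopreserved and Ficoll-isolated from blood or bone marrow or prepared from processed lymph node, were plated at 4 × 10^4 cells per well in 384-well plates containing pre-plated compounds at five concentrations, one well each. Plates were incubated in RPMI-1640 with penicillin/streptomycin, L-glutamine and human serum at 37 °C and 5% CO2 for 48 h.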

[2] = test system: primary AML patient cells (S089)
Outline: as §1

[3] = test system: primary AML patient cells (S021)
Outline: as §1

[4] = test system: primary AML patient cells (S007)
Outline: as §1

[5] = test system: primary AML patient cells (S091)
Outline: as §1

[6] = test system: primary FL patient cells (S022)
Outline: as §1

[7] = test system: primary AML patient cells (S081)
Outline: as §1

[8] = test system: primary AML patient cells (S019)
Outline: as §1

[9] = test system: primary AML patient cells (S037)
Outline: as §1

[10] = test system: primary T-PLL patient cells (S008)
Outline: as §1

[11] = test system: primary MCL patient cells (S068)
Outline: as §1

[12] = test system: primary AML patient cells (S025)
Outline: as §1

[13] = test system: primary AML patient cells (S002)
Outline: as §1

[14] = test system: primary AML patient cells (S011)
Outline: as §1

[15] = test system: primary DLBCL patient cells (S076)
Outline: as §1

[16] = test system: primary DLBCL patient cells (S049)
Outline: as §1

[17] = test system: primary T-NHL patient cells (S058)
Outline: as §1

[18] = test system: primary AML patient cells (S055)
Outline: as §1

Q: `O=C(O)CSc1cc(NS(=O)(=O)c2ccc(Br)cc2)c2ccccc2c1O` [UMI-77] was tested. Which viability ([1]; 0.024 µM) did it give?
A: 0.913

Q: And the viability ([1]; 0.12 µM)?
A: 0.88

Q: What about the viability ([1]; 0.6 µM) of the same compound?
A: 0.742

Q: What about the viability ([1]; 3 µM) of the same compound?
A: 0.582

Q: What about the viability ([1]; 15 µM) of the same compound?
A: 0.128

Q: And the viability ([2]; 0.024 µM)?
A: 0.835

Q: What about the viability ([2]; 0.12 µM) of the same compound?
A: 0.672

Q: What about the viability ([2]; 0.6 µM) of the same compound?
A: 0.737

Q: And the viability ([2]; 3 µM)?
A: 1.03

Q: What about the viability ([2]; 15 µM) of the same compound?
A: 0.998

Q: And the viability ([3]; 0.024 µM)?
A: 0.839

Q: And the viability ([3]; 0.12 µM)?
A: 0.917

Q: What about the viability ([3]; 0.6 µM) of the same compound?
A: 0.971

Q: And the viability ([3]; 3 µM)?
A: 0.961

Q: And the viability ([3]; 15 µM)?
A: 0.623

Q: What about the viability ([4]; 0.024 µM) of the same compound?
A: 0.894

Q: What about the viability ([4]; 0.12 µM) of the same compound?
A: 0.94

Q: What about the viability ([4]; 0.6 µM) of the same compound?
A: 0.853

Q: What about the viability ([4]; 3 µM) of the same compound?
A: 0.973

Q: What about the viability ([4]; 15 µM) of the same compound?
A: 0.891

Q: What about the viability ([5]; 0.024 µM) of the same compound?
A: 1.02

Q: What about the viability ([5]; 0.12 µM) of the same compound?
A: 1.03

Q: What about the viability ([5]; 0.6 µM) of the same compound?
A: 1.13

Q: What about the viability ([5]; 3 µM) of the same compound?
A: 1.32

Q: And the viability ([5]; 15 µM)?
A: 0.996

Q: What about the viability ([6]; 0.024 µM) of the same compound?
A: 0.967

Q: What about the viability ([6]; 0.12 µM) of the same compound?
A: 0.981

Q: What about the viability ([6]; 0.6 µM) of the same compound?
A: 0.913

Q: What about the viability ([6]; 3 µM) of the same compound?
A: 0.897

Q: What about the viability ([6]; 15 µM) of the same compound?
A: 0.521

Q: What about the viability ([7]; 0.024 µM) of the same compound?
A: 0.934

Q: And the viability ([7]; 0.12 µM)?
A: 0.984

Q: And the viability ([7]; 0.6 µM)?
A: 0.919

Q: And the viability ([7]; 3 µM)?
A: 0.812

Q: What about the viability ([7]; 15 µM) of the same compound?
A: 0.329

Q: And the viability ([8]; 0.024 µM)?
A: 1.28

Q: And the viability ([8]; 0.12 µM)?
A: 1.35

Q: What about the viability ([8]; 0.6 µM) of the same compound?
A: 1.17

Q: And the viability ([8]; 3 µM)?
A: 1.24

Q: What about the viability ([8]; 15 µM) of the same compound?
A: 0.831

Q: What about the viability ([9]; 0.024 µM) of the same compound?
A: 1.05

Q: What about the viability ([9]; 0.12 µM) of the same compound?
A: 1.04

Q: And the viability ([9]; 0.6 µM)?
A: 0.985

Q: And the viability ([9]; 3 µM)?
A: 0.978

Q: What about the viability ([9]; 15 µM) of the same compound?
A: 0.633

Q: And the viability ([10]; 0.024 µM)?
A: 0.976

Q: And the viability ([10]; 0.12 µM)?
A: 0.968

Q: And the viability ([10]; 0.6 µM)?
A: 0.91

Q: And the viability ([10]; 3 µM)?
A: 0.948

Q: And the viability ([10]; 15 µM)?
A: 0.815

Q: What about the viability ([11]; 0.024 µM) of the same compound?
A: 0.957

Q: And the viability ([11]; 0.12 µM)?
A: 0.817

Q: What about the viability ([11]; 0.6 µM) of the same compound?
A: 0.767

Q: What about the viability ([11]; 3 µM) of the same compound?
A: 0.666

Q: And the viability ([11]; 15 µM)?
A: 0.318

Q: What about the viability ([12]; 0.024 µM) of the same compound?
A: 1.06

Q: What about the viability ([12]; 0.12 µM) of the same compound?
A: 1.08

Q: And the viability ([12]; 0.6 µM)?
A: 1.03

Q: What about the viability ([12]; 3 µM) of the same compound?
A: 1.18

Q: And the viability ([12]; 15 µM)?
A: 0.46

Q: What about the viability ([13]; 0.024 µM) of the same compound?
A: 0.893

Q: And the viability ([13]; 0.12 µM)?
A: 0.926

Q: What about the viability ([13]; 0.6 µM) of the same compound?
A: 0.948

Q: What about the viability ([13]; 3 µM) of the same compound?
A: 0.937

Q: What about the viability ([13]; 15 µM) of the same compound?
A: 1.03

Q: And the viability ([14]; 0.024 µM)?
A: 0.457

Q: What about the viability ([14]; 0.12 µM) of the same compound?
A: 0.654

Q: What about the viability ([14]; 0.6 µM) of the same compound?
A: 0.618

Q: What about the viability ([14]; 3 µM) of the same compound?
A: 0.47

Q: And the viability ([14]; 15 µM)?
A: 0.227

Q: How did the viability ([15]; 0.0008 µM) turn out when `CC(=O)Nc1cccc(-n2c(=O)n(C3CC3)c(=O)c3c(Nc4ccc(I)cc4F)n(C)c(=O)c(C)c32)c1` [Trametinib] was run?
A: 0.752

Q: What about the viability ([15]; 0.004 µM) of the same compound?
A: 0.789

Q: What about the viability ([15]; 0.02 µM) of the same compound?
A: 0.63

Q: What about the viability ([15]; 0.1 µM) of the same compound?
A: 0.706

Q: And the viability ([15]; 0.5 µM)?
A: 0.648

Q: And the viability ([1]; 0.0008 µM)?
A: 0.818

Q: And the viability ([1]; 0.004 µM)?
A: 0.766

Q: And the viability ([1]; 0.02 µM)?
A: 0.674

Q: And the viability ([1]; 0.1 µM)?
A: 0.666

Q: And the viability ([1]; 0.5 µM)?
A: 0.592

Q: What about the viability ([2]; 0.0008 µM) of the same compound?
A: 0.635

Q: And the viability ([2]; 0.004 µM)?
A: 0.57

Q: What about the viability ([2]; 0.02 µM) of the same compound?
A: 0.558

Q: What about the viability ([2]; 0.1 µM) of the same compound?
A: 0.529

Q: What about the viability ([2]; 0.5 µM) of the same compound?
A: 0.539

Q: And the viability ([3]; 0.0008 µM)?
A: 0.864

Q: And the viability ([3]; 0.004 µM)?
A: 0.697

Q: And the viability ([3]; 0.02 µM)?
A: 0.672

Q: What about the viability ([3]; 0.1 µM) of the same compound?
A: 0.598

Q: And the viability ([3]; 0.5 µM)?
A: 0.605

Q: And the viability ([5]; 0.0008 µM)?
A: 0.438

Q: And the viability ([5]; 0.004 µM)?
A: 0.308

Q: What about the viability ([5]; 0.02 µM) of the same compound?
A: 0.288

Q: And the viability ([5]; 0.1 µM)?
A: 0.299

Q: And the viability ([5]; 0.5 µM)?
A: 0.272

Q: What about the viability ([6]; 0.0008 µM) of the same compound?
A: 0.845

Q: And the viability ([6]; 0.004 µM)?
A: 0.986

Q: And the viability ([6]; 0.02 µM)?
A: 0.851

Q: And the viability ([6]; 0.1 µM)?
A: 1.18

Q: What about the viability ([6]; 0.5 µM) of the same compound?
A: 0.824

Q: And the viability ([7]; 0.0008 µM)?
A: 0.999

Q: What about the viability ([7]; 0.004 µM) of the same compound?
A: 0.935

Q: And the viability ([7]; 0.02 µM)?
A: 0.742

Q: What about the viability ([7]; 0.1 µM) of the same compound?
A: 0.651

Q: What about the viability ([7]; 0.5 µM) of the same compound?
A: 0.567

Q: And the viability ([8]; 0.0008 µM)?
A: 0.948

Q: And the viability ([8]; 0.004 µM)?
A: 0.944

Q: What about the viability ([8]; 0.02 µM) of the same compound?
A: 0.878

Q: What about the viability ([8]; 0.1 µM) of the same compound?
A: 0.919

Q: And the viability ([8]; 0.5 µM)?
A: 0.912

Q: What about the viability ([16]; 0.0008 µM) of the same compound?
A: 0.769

Q: And the viability ([16]; 0.004 µM)?
A: 0.834

Q: And the viability ([16]; 0.02 µM)?
A: 0.705

Q: What about the viability ([16]; 0.1 µM) of the same compound?
A: 0.729

Q: And the viability ([16]; 0.5 µM)?
A: 0.658

Q: What about the viability ([9]; 0.0008 µM) of the same compound?
A: 0.957

Q: And the viability ([9]; 0.004 µM)?
A: 0.969

Q: What about the viability ([9]; 0.02 µM) of the same compound?
A: 0.921

Q: And the viability ([9]; 0.1 µM)?
A: 0.899

Q: What about the viability ([9]; 0.5 µM) of the same compound?
A: 0.915

Q: And the viability ([10]; 0.0008 µM)?
A: 0.965

Q: What about the viability ([10]; 0.004 µM) of the same compound?
A: 1.05

Q: And the viability ([10]; 0.02 µM)?
A: 0.955

Q: And the viability ([10]; 0.1 µM)?
A: 1.07

Q: What about the viability ([10]; 0.5 µM) of the same compound?
A: 0.905

Q: What about the viability ([11]; 0.0008 µM) of the same compound?
A: 0.921

Q: And the viability ([11]; 0.004 µM)?
A: 0.8

Q: And the viability ([11]; 0.02 µM)?
A: 0.791

Q: And the viability ([11]; 0.1 µM)?
A: 0.727

Q: And the viability ([11]; 0.5 µM)?
A: 0.7

Q: And the viability ([17]; 0.0008 µM)?
A: 0.918

Q: What about the viability ([17]; 0.004 µM) of the same compound?
A: 0.98

Q: What about the viability ([17]; 0.02 µM) of the same compound?
A: 0.969

Q: And the viability ([17]; 0.1 µM)?
A: 0.967

Q: What about the viability ([17]; 0.5 µM) of the same compound?
A: 0.934

Q: What about the viability ([18]; 0.0008 µM) of the same compound?
A: 0.797

Q: What about the viability ([18]; 0.004 µM) of the same compound?
A: 0.582

Q: And the viability ([18]; 0.02 µM)?
A: 0.585

Q: What about the viability ([18]; 0.1 µM) of the same compound?
A: 0.559

Q: And the viability ([18]; 0.5 µM)?
A: 0.558

Q: And the viability ([12]; 0.0008 µM)?
A: 0.74

Q: What about the viability ([12]; 0.004 µM) of the same compound?
A: 0.618

Q: And the viability ([12]; 0.02 µM)?
A: 0.644

Q: And the viability ([12]; 0.1 µM)?
A: 0.561

Q: And the viability ([12]; 0.5 µM)?
A: 0.554

Q: What about the viability ([13]; 0.0008 µM) of the same compound?
A: 0.398

Q: What about the viability ([13]; 0.004 µM) of the same compound?
A: 0.432

Q: And the viability ([13]; 0.02 µM)?
A: 0.364

Q: What about the viability ([13]; 0.1 µM) of the same compound?
A: 0.437

Q: What about the viability ([13]; 0.5 µM) of the same compound?
A: 0.402

Q: And the viability ([14]; 0.0008 µM)?
A: 0.855

Q: What about the viability ([14]; 0.004 µM) of the same compound?
A: 0.925

Q: And the viability ([14]; 0.02 µM)?
A: 0.953

Q: And the viability ([14]; 0.1 µM)?
A: 0.931

Q: What about the viability ([14]; 0.5 µM) of the same compound?
A: 0.879

Source: the supplement of paper PMC10733146
